Measurements as given in US20180153995A1, “USE OF ANTIMICROBIAL POLYMERS FOR RE-SENSITIZATION OF MICROORGANISMS UPON EMERGENCE OF RESISTANCE TO ANTI-MICROBIAL AGENTS” (Technion Research & Development Foundation Limited, priority 2008, published 2018).
Values after ≈ are worked out from the molar mass of the structure shown. Values joined by “and” are separate entries in the source; they are usually repeats but may differ in a detail not shown here. Identical values can stand only once. Like-named read-outs stand apart in the source and are kept apart here.

What was measured:
E. coli AG100/ks = test: Antibiotic MIC with or without sub-MIC polymer (Tables 20, 21); format: cell-based, Escherichia coli
MRSA 15852 = format: cell-based, Staphylococcus aureus; conditions: S. aureus 15852
Procedure: The fractionary inhibitory (FIC) concentration index for combinations of two antimicrobial agents was calculated as follows: FIC index=FICA+FICB=A/MICA+B/MICB where A and B are the MIC values of agent A and agent B in the combination, MICA and MICB are the MICs of agent A and agent B alone, and FICA and FICB are the FICs of agent A and agent B.
The FIC indexes were interpreted as follows: less than 0.5 indicates a clear re-sensitizing effect; from 0.5 to 4 indicates a marginal or null re-sensitizing effect; and over 4 indicates antagonism.

ATCC 25923 = test: microbe, parasite or virus in culture; format: cell-based, Staphylococcus aureus; conditions: Staphylococcus aureus, ATCC25923; read-out: MIC
Procedure: (§1) MICs were determined by microdilution susceptibility testing in 96-well plates (by Nunc) using inocula of 10^5 bacteria per ml. Cell populations were evaluated by optical density measurements at 620 nm and were calibrated against a set of standards. Hundred (100) μl of a bacterial suspension were added to 100 μl of culture medium (control) or to 100 μl of culture medium containing various polymer concentrations in 2-fold serial dilutions. Inhibition of proliferation was determined by optical density measurements at 620 nm after an incubation period of 24 hours at 37° C.

S. aureus ATCC 29213 = test: microbe, parasite or virus in culture; conditions: Staphylococcus aureus, ATCC29213, read-out: Oxacillin's MIC
Procedure: In parallel, MIC evolution was compared concomitantly for each new sub-culture, using bacteria harvested from control wells (wells cultured without antimicrobial agent from the previous sub-culture). The relative MIC was calculated for each experiment from the ratio of MIC obtained for subculture “n” to that obtained for first-time exposure.
The relative MIC was determined as the normalized ratio of the MIC obtained for a given subculture to the MIC of the control.
MICs were determined by microdilution susceptibility testing in 96-well plates using inocula of 10^5 bacteria per ml. Cell populations were evaluated by optical density measurements at 600 nm and were calibrated against a set of standards.
In parallel, MIC evolution was compared concomitantly for each new generation, using bacteria harvested from control wells (wells cultured without antimicrobial agent from the previous generation). The relative MIC was calculated for each experiment from the ratio of MIC obtained for subculture “n” to that obtained for first-time exposure. […] MICs were determined by microdilution susceptibility testing in 96-well plates. Cell populations were evaluated by optical density measurements at 600 nm and were calibrated against a set of standards.

E. coli CI14213 = format: cell-based, Escherichia coli
Procedure, shortened: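 Broth microdilution, inocula 10^5 bacteria/ml, 24 h at 37 °C. Growth read as OD620 against calibration standards.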

E. coli AG100 = test: Antibiotic MIC with or without sub-MIC polymer (Tables 20, 21); format: cell-based, Escherichia coli
P. aeruginosa 8732 = test: Antibiotic MIC by microdilution with or without sub-MIC polymer; format: cell-based, Pseudomonas aeruginosa
Procedure: as §1
Inhibition of proliferation was determined by optical density measurements at 620 nm after an incubation period of 24 hours at 37° C.

S. aureus 43300 = test: as above; format: cell-based, Staphylococcus aureus
Procedure: as §1
Table 8 below presents the MIC values of antibiotics in presence or absence of C12(5-ene)KKNC12KNH2 (SEQ ID NO: 2) at sub-MIC levels of the polymer, as measured for the S. aureus strains 43300 (ATCC), 15819 (clinical isolate), 15877 (clinical isolate) and 15852 (clinical isolate). MICs were determined by microdilution susceptibility testing in 96-well plates (Nunc) using inocula of 10^5 bacteria per ml. One hundred (100) μl of a bacterial suspension were added to 100 μl of culture medium (control) or to 100 μl of culture medium containing various antibiotic and C12(5-ene)KKNC12KNH2 (SEQ ID NO: 2) concentrations in 2-fold serial dilutions. Inhibition of proliferation was determined by optical density measurements at 620 nm after an incubation period of 24 hours at 37° C.
100 μl of a bacterial suspension were added to 100 μl of culture medium (control) or to 100 μl of culture medium containing various antibiotic and C14(9-ene)KKNC12KNH2 (SEQ ID NO: 5) concentrations in 2-fold serial dilutions. Inhibition of proliferation was determined by optical density measurements at 620 nm after an incubation period of 24 hours at 37° C.

SMILES: Cc1onc(-c2ccccc2)c1C(=O)N[C@@H]1C(=O)N2[C@@H]1SC(C)(C)[C@@H]2C(=O)O [Oxacillin, oxacillin]
- Antibiotic MIC, None (E. coli AG100/ks; antibiotic alone (Table 20)): >512 µg/mL
- Antibiotic MIC, None (E. coli AG100/ks; antibiotic alone (Table 21)): >512 µg/mL
- Antibiotic MIC in presence of C12K(NC8K)5NH2 (SEQ ID NO: 3), +¼ MIC (E. coli AG100/ks; polymer at ¼ of its MIC): >512 µg/mL
- Antibiotic MIC in presence of C12K(NC8K)7NH2 (SEQ ID NO: 4), +¼ MIC (E. coli AG100/ks; polymer at ¼ of its MIC): >512 µg/mL
- Antibiotic MIC in presence of C12K(NC8K)5NH2 (SEQ ID NO: 3), +½ MIC (E. coli AG100/ks; polymer at ½ of its MIC): >512 µg/mL
- Antibiotic MIC in presence of C12K(NC8K)7NH2 (SEQ ID NO: 4), +½ MIC (E. coli AG100/ks; polymer at ½ of its MIC): >512 µg/mL
- Antibiotic MIC in presence of C12K(NC8K)5NH2 (SEQ ID NO: 3), +⅓ MIC (E. coli AG100/ks; polymer at ⅓ of its MIC): >512 µg/mL
- Antibiotic MIC in presence of C12K(NC8K)7NH2 (SEQ ID NO: 4), +⅓ MIC (E. coli AG100/ks; polymer at ⅓ of its MIC): >512 µg/mL
- Antibiotic MIC (MRSA 15852; +¼ MIC (1.6 μM) C12KKNC12KNH2): 256 µg/mL
- Antibiotic MIC (MRSA 15852; +½ MIC (3.12 μM) C12KKNC12KNH2): 256 µg/mL
- Antibiotic MIC (MRSA 15852; +⅓ MIC (2.1 μM) C12KKNC12KNH2): 256 µg/mL
- Antibiotic MIC (MRSA 15852; no polymer (None), Table 11): 256 µg/mL
- MIC (ATCC 25923): 0.17 µg/mL (≈ 0.423 µM)
- MIC (S. aureus ATCC 29213): 0.28 µM and 0.125 µg/mL
- activity of oxacillin alone (E. coli CI14213; E. coli CI14213, 24 hours incubation): inactive
- concentration up to which E. coli is insensitive to oxacillin (E. coli CI14213; E. coli, oxacillin alone): > 512 µg/mL
- Antibiotic MIC, None (E. coli AG100; antibiotic alone (Table 20)): 512 µg/mL
- Antibiotic MIC, None (E. coli AG100; antibiotic alone (Table 21)): 512 µg/mL
- Antibiotic MIC in presence of C12K(NC8K)5NH2 (SEQ ID NO: 3), +¼ MIC (E. coli AG100; polymer at ¼ of its MIC): 256 µg/mL
- Antibiotic MIC in presence of C12K(NC8K)5NH2 (SEQ ID NO: 3), +½ MIC (E. coli AG100; polymer at ½ of its MIC): 32 to 64 µg/mL
- Antibiotic MIC in presence of C12K(NC8K)7NH2 (SEQ ID NO: 4), +½ MIC (E. coli AG100; polymer at ½ of its MIC): 32 to 64 µg/mL
- Antibiotic MIC (P. aeruginosa 8732): >512 µg/mL
- Antibiotic MIC (P. aeruginosa 8732; P. aeruginosa 8732, +½ MIC (3.12 μM) C16(9-ene)KKNC12KNH2): >512 µg/mL
- Antibiotic MIC (P. aeruginosa 8732; P. aeruginosa 8732, +⅓ MIC (2.1 μM) C16(9-ene)KKNC12KNH2): >512 µg/mL
- Antibiotic MIC (P. aeruginosa 8732; P. aeruginosa 8732, no polymer (None), Table 10): >512 µg/mL
- Antibiotic MIC (S. aureus 43300; +¼ MIC (1.6 μM) C14(9-ene)KKNC12KNH2): 0.25 to 0.5 µg/mL
- Antibiotic MIC (S. aureus 43300; +½ MIC (3.12 μM) C12(5-ene)KKNC12KNH2): 0.06 µg/mL
- Antibiotic MIC (S. aureus 43300; +½ MIC (3.12 μM) C14(9-ene)KKNC12KNH2): 0.25 µg/mL
- Antibiotic MIC (S. aureus 43300; +⅓ MIC (2.1 μM) C14(9-ene)KKNC12KNH2): 0.25 µg/mL
- Antibiotic MIC (S. aureus 43300; no polymer (None), Table 8): 0.5 to 1 µg/mL
- Antibiotic MIC (S. aureus 43300; no polymer (None), Table 9): 0.5 µg/mL
- Antibiotic MIC (S. aureus 43300; no polymer (None), Table 10): 0.5 to 1 µg/mL
- Antibiotic MIC (S. aureus 43300; no polymer (None), Table 11): 0.5 µg/mL
- Antibiotic MIC (S. aureus 43300; no polymer (None), Table 12): 0.5 µg/mL
